The source made the active and inactive calls.
Target: Luciferin 4-monooxygenase (Photinus pyralis, UniProt P08659)
Experiment: firefly luciferase enzyme inhibitors, dose response, biochemical, luminescence (AID 1891)
Conditions: not given

Luciferin 4-monooxygenase, sequence (P08659 whole entry): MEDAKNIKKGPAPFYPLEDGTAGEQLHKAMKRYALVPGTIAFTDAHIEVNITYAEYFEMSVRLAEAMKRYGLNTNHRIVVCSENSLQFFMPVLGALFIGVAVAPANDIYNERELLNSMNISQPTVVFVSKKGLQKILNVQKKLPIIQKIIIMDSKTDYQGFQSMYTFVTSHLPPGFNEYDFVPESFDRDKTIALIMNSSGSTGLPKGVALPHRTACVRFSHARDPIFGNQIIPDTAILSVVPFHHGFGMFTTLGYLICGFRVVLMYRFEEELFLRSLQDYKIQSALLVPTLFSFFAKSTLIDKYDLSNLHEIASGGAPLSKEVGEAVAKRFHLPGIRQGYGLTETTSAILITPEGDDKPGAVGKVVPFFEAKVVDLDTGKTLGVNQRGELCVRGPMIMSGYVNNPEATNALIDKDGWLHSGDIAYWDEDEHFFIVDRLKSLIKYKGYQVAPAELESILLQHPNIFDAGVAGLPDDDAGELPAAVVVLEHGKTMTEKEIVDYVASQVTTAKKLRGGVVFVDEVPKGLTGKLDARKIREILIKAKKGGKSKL

**Q.** With `CCOc1ccccc1CN(CCc1ccc2c(c1)OCO2)Cc1ccccn1` as the compound, how does the EC50 read?
**A.** > 112 µM (not active)

Target: T1, Sentrin-specific protease 6 (Homo sapiens, UniProt Q9GZR1);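 note: Luminescence-based dose-response confirmatory assay of SENP6 inhibition, following up an ultra-high-throughput screen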
T1 sequence (Q9GZR1 whole entry): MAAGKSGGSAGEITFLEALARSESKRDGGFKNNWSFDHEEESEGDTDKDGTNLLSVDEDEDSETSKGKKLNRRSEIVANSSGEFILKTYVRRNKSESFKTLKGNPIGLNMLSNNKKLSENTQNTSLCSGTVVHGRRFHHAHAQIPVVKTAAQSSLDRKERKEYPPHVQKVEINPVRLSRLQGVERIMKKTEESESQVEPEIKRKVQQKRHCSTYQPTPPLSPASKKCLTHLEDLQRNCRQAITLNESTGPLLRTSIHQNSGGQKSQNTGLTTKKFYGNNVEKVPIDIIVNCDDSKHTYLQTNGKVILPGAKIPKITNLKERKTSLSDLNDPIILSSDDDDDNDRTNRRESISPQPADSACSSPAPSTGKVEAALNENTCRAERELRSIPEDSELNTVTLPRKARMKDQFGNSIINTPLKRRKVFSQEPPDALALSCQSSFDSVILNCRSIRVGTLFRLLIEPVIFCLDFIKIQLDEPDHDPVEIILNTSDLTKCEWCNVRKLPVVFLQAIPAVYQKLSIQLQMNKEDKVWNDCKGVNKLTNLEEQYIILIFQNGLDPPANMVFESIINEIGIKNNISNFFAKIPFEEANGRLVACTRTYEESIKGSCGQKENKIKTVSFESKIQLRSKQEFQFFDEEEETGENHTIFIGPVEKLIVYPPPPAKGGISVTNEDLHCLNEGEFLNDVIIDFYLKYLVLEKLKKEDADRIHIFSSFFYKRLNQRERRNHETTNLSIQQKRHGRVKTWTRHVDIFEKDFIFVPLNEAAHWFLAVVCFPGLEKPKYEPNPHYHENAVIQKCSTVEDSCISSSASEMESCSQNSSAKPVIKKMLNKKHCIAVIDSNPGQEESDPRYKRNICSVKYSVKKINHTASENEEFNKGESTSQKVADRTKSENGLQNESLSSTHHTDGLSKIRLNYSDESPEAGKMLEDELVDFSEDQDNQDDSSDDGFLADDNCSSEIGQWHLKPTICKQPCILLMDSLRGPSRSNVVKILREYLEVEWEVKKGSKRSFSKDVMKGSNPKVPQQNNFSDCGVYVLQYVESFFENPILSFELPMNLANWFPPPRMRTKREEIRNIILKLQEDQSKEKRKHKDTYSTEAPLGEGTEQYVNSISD
Experiment: not given
Assay type: functional
Conditions: not given

**Q.** Which IC50 does the source give for `O=C(Nc1cc(Cl)cc(Cl)c1)c1cccc(OC(F)F)c1` here?
**A.** 46.9 µM (active)

**Q.** Which IC50 does the source give for `O=C(CCCN1C(=O)/C(=C/c2ccccc2Cl)SC1=S)NCCCN1CCOCC1` here?
**A.** 36.7 µM (active)

**Q.** For `c1ccc(Cn2nc(-c3ccccc3)nc2-c2ccccc2)cc1`, which IC50 is on record?
**A.** 25 µM (active)

**Q.** With `O=C(Nc1ccc(Br)cc1)Nc1ccccc1Cl` as the compound, how does the IC50 read?
**A.** 7.19 µM (active)

**Q.** For `COc1ccc(C(=O)CNc2ccccc2Br)cc1`, which IC50 is on record?
**A.** 27.4 µM (active)

**Q.** For `COc1cccc(C(=O)Oc2ccc3ccc(O)cc3c2)c1`, which IC50 is on record?
**A.** 20.9 µM (active)

Target: T2, Sentrin-specific protease 8 (Homo sapiens, UniProt Q96LD8);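 note: luminescence read-out of SENP8 inhibition, dose-response confirmation following an ultra-high-throughput screen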
T2 sequence (Q96LD8 whole entry): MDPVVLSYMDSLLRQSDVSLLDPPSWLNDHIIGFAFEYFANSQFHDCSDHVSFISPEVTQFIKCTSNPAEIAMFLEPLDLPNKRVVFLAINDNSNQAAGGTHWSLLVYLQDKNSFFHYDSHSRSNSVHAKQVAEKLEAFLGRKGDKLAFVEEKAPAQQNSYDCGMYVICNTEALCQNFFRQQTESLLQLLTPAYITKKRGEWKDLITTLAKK
Experiment: not given
Assay type: functional
Conditions: not given

**Q.** With `O=C(Nc1cc(Cl)cc(Cl)c1)c1cccc(OC(F)F)c1` as the compound, how does the IC50 read?
**A.** 53.9 µM (active)

**Q.** With `O=C(CCCN1C(=O)/C(=C/c2ccccc2Cl)SC1=S)NCCCN1CCOCC1` as the compound, how does the IC50 read?
**A.** 43.6 µM (active)

**Q.** Which IC50 does the source give for `c1ccc(Cn2nc(-c3ccccc3)nc2-c2ccccc2)cc1` here?
**A.** 30.4 µM (active)

**Q.** With `O=C(Nc1ccc(Br)cc1)Nc1ccccc1Cl` as the compound, how does the IC50 read?
**A.** 26.8 µM (active)

**Q.** With `COc1ccc(C(=O)CNc2ccccc2Br)cc1` as the compound, how does the IC50 read?
**A.** 82.8 µM (active)

**Q.** With `COc1cccc(C(=O)Oc2ccc3ccc(O)cc3c2)c1` as the compound, how does the IC50 read?
**A.** 17 µM (active)

System: not listed separately
Experiment: HeLa cell cytotoxicity, dose response, cytotoxicity control for MgcRacGAP inhibitor project (AID 624300)
Assay type: functional
Conditions: not given

**Q.** Which CC50 does the source give for `CCOc1ccccc1CN(CCc1ccc2c(c1)OCO2)Cc1ccccn1` here?
**A.** 100 µM (active)

Target: T3, Polyadenylate-binding protein 1 (Homo sapiens, UniProt P11940)
T3 sequence (P11940 whole entry): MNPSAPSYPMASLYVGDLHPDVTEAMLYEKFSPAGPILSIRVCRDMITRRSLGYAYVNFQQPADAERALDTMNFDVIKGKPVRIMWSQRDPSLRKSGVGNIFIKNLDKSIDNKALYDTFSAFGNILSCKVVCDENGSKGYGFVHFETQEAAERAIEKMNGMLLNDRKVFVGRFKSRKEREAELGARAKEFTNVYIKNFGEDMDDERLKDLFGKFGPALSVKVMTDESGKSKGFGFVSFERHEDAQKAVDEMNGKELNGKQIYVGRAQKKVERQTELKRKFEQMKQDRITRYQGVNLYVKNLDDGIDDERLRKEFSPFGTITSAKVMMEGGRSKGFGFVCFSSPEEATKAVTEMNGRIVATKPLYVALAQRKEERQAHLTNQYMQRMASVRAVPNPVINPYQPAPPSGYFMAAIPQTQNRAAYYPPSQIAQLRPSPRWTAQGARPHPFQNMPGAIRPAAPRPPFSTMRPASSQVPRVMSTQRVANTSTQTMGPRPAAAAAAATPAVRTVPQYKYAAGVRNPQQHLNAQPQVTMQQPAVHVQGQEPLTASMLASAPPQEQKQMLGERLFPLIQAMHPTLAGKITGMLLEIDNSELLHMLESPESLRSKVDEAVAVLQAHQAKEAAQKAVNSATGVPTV
Experiment: PABP1 MLLE–PAM2 interaction inhibitors, dose response, miRNA deadenylation inhibitor project, biochemical, fluorescence polarization, Cy5-PAM2 peptide, secondary (AID 602260)
Assay type: functional
Conditions: read-out: IC50_Mean

**Q.** Which IC50 does the source give for `O=C(CCCN1C(=O)/C(=C/c2ccccc2Cl)SC1=S)NCCCN1CCOCC1` here?
**A.** > 66 µM (inactive)

System: not listed separately
Experiment: Luminescence Cell-Based Dose Confirmation HTS to Identify Inhibitors of Platelet Dense Granule Release. [Related pubchem assays: 1663 (Primary HTS), 1678 (Summary of Project)]
Assay type: functional
Conditions: not given

**Q.** Which EC50 does the source give for `CCOc1ccccc1CN(CCc1ccc2c(c1)OCO2)Cc1ccccn1` here?
**A.** > 112 µM (not active)

Target: T4, Rac GTPase-activating protein 1 (Homo sapiens, UniProt Q9H0H5)
T4 sequence (Q9H0H5 whole entry): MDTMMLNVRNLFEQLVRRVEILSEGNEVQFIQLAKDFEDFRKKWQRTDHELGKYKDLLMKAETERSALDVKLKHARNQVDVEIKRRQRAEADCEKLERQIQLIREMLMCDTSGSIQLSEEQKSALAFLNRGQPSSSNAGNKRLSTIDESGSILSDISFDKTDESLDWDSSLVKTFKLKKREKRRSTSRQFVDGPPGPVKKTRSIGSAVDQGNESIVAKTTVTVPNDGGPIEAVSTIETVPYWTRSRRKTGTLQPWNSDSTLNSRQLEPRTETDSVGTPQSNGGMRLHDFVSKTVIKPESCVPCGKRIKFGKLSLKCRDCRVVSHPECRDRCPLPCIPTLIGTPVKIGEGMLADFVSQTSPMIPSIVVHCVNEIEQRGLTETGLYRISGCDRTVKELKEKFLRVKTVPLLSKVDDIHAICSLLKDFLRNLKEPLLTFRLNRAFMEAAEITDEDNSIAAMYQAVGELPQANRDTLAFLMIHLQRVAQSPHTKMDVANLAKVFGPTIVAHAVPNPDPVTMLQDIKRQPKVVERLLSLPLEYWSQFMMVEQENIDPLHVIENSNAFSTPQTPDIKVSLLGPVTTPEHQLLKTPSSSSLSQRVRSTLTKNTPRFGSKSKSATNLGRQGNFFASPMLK
Experiment: MgcRacGAP GTPase-activating activity inhibitors, confirmation, biochemical, ADP Hunter fluorescence, primary and confirmatory (AID 624330)
Assay type: functional
Conditions: not given

**Q.** With `CCOc1ccccc1CN(CCc1ccc2c(c1)OCO2)Cc1ccccn1` as the compound, how does the IC50 read?
**A.** 172 µM (active)

Target: T5, Caspase-3 (Homo sapiens, UniProt P42574);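 note: Dose-response selectivity test against caspase-3 for candidate inhibitors of sentrin-specific proteases (SENPs)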
T5 sequence (P42574 whole entry): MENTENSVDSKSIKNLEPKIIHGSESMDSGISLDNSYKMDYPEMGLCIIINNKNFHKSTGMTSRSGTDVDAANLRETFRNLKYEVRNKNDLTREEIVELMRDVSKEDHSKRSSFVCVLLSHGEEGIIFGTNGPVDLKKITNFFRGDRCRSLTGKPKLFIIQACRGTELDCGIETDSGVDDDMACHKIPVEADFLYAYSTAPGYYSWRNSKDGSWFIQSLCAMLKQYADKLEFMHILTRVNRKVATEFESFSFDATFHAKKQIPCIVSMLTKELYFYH
Experiment: not given
Assay type: functional
Conditions: not given

**Q.** With `O=C(Nc1cc(Cl)cc(Cl)c1)c1cccc(OC(F)F)c1` as the compound, how does the IC50 read?
**A.** > 100 µM (inactive)

**Q.** Which IC50 does the source give for `O=C(CCCN1C(=O)/C(=C/c2ccccc2Cl)SC1=S)NCCCN1CCOCC1` here?
**A.** 34.2 µM (active)

**Q.** With `c1ccc(Cn2nc(-c3ccccc3)nc2-c2ccccc2)cc1` as the compound, how does the IC50 read?
**A.** 32 µM (active)

**Q.** For `O=C(Nc1ccc(Br)cc1)Nc1ccccc1Cl`, which IC50 is on record?
**A.** 24.6 µM (active)

**Q.** Which IC50 does the source give for `COc1ccc(C(=O)CNc2ccccc2Br)cc1` here?
**A.** 22 µM (active)

**Q.** With `COc1cccc(C(=O)Oc2ccc3ccc(O)cc3c2)c1` as the compound, how does the IC50 read?
**A.** 40.1 µM (active)

Target: T3, Polyadenylate-binding protein 1
Experiment: PABP1 MLLE–PAM2 binding inhibitor potency, dose response, biochemical, fluorescence polarization, FITC-PAM2 peptide (AID 602259)
Assay type: functional
Conditions: read-out: IC50_Mean

**Q.** Which IC50 does the source give for `O=C(CCCN1C(=O)/C(=C/c2ccccc2Cl)SC1=S)NCCCN1CCOCC1` here?
**A.** > 66 µM (inactive)

Target: T6, Sentrin-specific protease 7 (Homo sapiens, UniProt Q9BQF6);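 note: Luminescence-based dose-response confirmation of ultra-high-throughput screening hits, measuring inhibition of SENP7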
T6 sequence (Q9BQF6 whole entry): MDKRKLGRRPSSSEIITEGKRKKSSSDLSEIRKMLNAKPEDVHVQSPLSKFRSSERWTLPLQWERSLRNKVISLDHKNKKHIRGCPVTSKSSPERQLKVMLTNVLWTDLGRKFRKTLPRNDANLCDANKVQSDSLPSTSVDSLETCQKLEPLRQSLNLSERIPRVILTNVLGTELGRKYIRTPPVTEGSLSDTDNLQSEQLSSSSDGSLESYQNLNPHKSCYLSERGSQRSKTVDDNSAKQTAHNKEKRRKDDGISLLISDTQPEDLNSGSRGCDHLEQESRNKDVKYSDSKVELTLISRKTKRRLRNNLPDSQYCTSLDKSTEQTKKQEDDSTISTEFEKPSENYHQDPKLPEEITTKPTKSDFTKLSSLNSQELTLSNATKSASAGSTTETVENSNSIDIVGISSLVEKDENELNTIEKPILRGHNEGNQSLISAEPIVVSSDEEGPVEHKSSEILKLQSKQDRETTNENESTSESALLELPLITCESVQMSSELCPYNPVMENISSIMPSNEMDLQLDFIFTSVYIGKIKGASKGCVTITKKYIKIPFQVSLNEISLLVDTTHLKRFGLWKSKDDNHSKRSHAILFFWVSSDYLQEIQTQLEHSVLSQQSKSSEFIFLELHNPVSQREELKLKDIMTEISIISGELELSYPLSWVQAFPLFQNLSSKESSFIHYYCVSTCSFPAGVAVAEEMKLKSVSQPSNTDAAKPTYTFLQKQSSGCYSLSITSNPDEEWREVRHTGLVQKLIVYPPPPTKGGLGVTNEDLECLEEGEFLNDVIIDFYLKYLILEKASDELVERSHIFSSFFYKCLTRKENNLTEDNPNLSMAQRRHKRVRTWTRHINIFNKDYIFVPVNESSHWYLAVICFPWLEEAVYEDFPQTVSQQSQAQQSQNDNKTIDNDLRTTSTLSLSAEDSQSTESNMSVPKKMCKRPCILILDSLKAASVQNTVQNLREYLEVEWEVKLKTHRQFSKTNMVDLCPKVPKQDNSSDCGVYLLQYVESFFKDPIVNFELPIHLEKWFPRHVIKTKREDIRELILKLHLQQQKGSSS
Experiment: not given
Assay type: functional
Conditions: not given

**Q.** For `O=C(Nc1cc(Cl)cc(Cl)c1)c1cccc(OC(F)F)c1`, which IC50 is on record?
**A.** 11.8 µM (active)

**Q.** With `O=C(CCCN1C(=O)/C(=C/c2ccccc2Cl)SC1=S)NCCCN1CCOCC1` as the compound, how does the IC50 read?
**A.** 14.8 µM (active)

**Q.** Which IC50 does the source give for `c1ccc(Cn2nc(-c3ccccc3)nc2-c2ccccc2)cc1` here?
**A.** 8.63 µM (active)

**Q.** For `O=C(Nc1ccc(Br)cc1)Nc1ccccc1Cl`, which IC50 is on record?
**A.** 7.21 µM (active)

**Q.** For `COc1ccc(C(=O)CNc2ccccc2Br)cc1`, which IC50 is on record?
**A.** 6.34 µM (active)

**Q.** With `COc1cccc(C(=O)Oc2ccc3ccc(O)cc3c2)c1` as the compound, how does the IC50 read?
**A.** 7.37 µM (active)
